In ChEMBL document CHEMBL5126565, “Discovery of (2-phenylthiazol-4-yl)urea derivatives that induce neuronal differentiation from mesenchymal stem cells” (Bioorg Med Chem Lett, 2022):
Activity calls are given as the source filed them. No cut-off for these calls is given here.

Key:
[1] = Solubility of compound in culture media; assay type: physicochemical
Mesenchymal stem cells [2] = test: Cytotoxicity against human derived mesenchymal stem cells assessed as cell viability upto 20 uM measured after 4 days; assay type: toxicity, cell-based; conditions: 96 h, time 4 day
Mesenchymal stem cells [3] = test: Effect on cell cycle progression in human derived mesenchymal stem cells upto 20 uM measured after 4 days; assay type: toxicity, cell-based; conditions: 96 h, time 4 day
Mesenchymal stem cells [4] = test: Induction of neural differentiation in human derived mesenchymal stem cells assessed as neuron formation measured TuJI expression by immunohistochemical analysis; assay type: functional, cell-based; conditions: dose 2-5 µM
[5] = Induction of neural differentiation in human derived mesenchymal stem cells assessed as neuron formation at 5 uM measured TuJI expression by immunohistochemical analysis relative to control; assay type: functional

With `CN1CCN(C(=O)NCc2csc(-c3ccccc3)n2)CC1` the solubility [1] was “Soluble”, the Activity (Mesenchymal stem cells [2]) was “Non-Toxic” and the Activity (Mesenchymal stem cells [3]) was “Non-Toxic”. The Activity (Mesenchymal stem cells [4]) was “Active”.

With `O=C(NCc1csc(-c2ccccc2)n1)N1CCOCC1` the solubility [1] was “Soluble”, the Activity (Mesenchymal stem cells [2]) was “Non-Toxic” and the Activity (Mesenchymal stem cells [3]) was “Non-Toxic”. For the same molecule, the “fold change (FC)” value [5] was 2 and the Activity (Mesenchymal stem cells [4]; DDE = dose-dependent effect) was “Dde”.
